Experimental data published in patent publication US11325907B2, “Crystal form of 1H-imidazo[4,5-b]pyridine-2(3H)-one compound and preparation process therefor” (MEDSHINE DISCOVERY INC., priority 2018, dated 2022).

How the values were obtained:
[1] = Hygroscopicity test (Dynamic Vapor Sorption); type: physicochemical; conditions: 25° C. and 80% RH, DVS
Method: Device: SEM Advantage-1 Dynamic Vapor Sorption apparatus
Testing conditions: The sample (10-20 mg) is placed in DVS sample disk for testing.
Balance: dm/dt=0.01%/min (min: 10 min, max: 180 min)
Drying: drying at 0% RH for 120 min
RH (%) testing gradient: 10%
RH (%) testing gradient range: 0% -90%-0%
The hygroscopicity is categorized as follows:
SEM DVS Advantage-1 Dynamic Vapor Sorption instrument

[2] = Solid stability test under long-term conditions (25° C./Relative Humidity 60%, sealed); type: physicochemical
Method: Content Determination Method
Device: Agilent 1260 High Performance Liquid Chromatograph with DAD detector or Shimadzu LC-20A High Performance Liquid Chromatograph with PDA detector
Detailed Chromatographic parameters are as follows:
Chromatographic column: Agilent Eclipse plus C18 (4.6 mm×150 mm, 3.5 μm)
Column temperature: 40° C.
Detecting wavelength: 230 nm
Mobile Phase A: 0.04% trifluoroacetic acid aqueous solution (V/V)
Mobile Phase B: acetonitrile
Diluent: acetonitrile: purified water=3:1 (v/v)
Probe Wash: acetonitrile: purified water=3:1 (v/v)
Gradient elution procedure: […]
Each layer of the low-density polyethylene bag was buckled and sealed respectively and then the bag was placed in an aluminum foil bag and heat-sealed. The samples were taken on the 3rd, 6th, 9th, 12th and 18th months for testing and the test results were compared with the initial test results of day 0.

[3] = Batch 1, 25° C./Relative Humidity 60%, Sealed, 3rd month
[4] = Batch 1, 25° C./Relative Humidity 60%, Sealed, 6th month
[5] = Batch 1, 25° C./Relative Humidity 60%, Sealed, 9th month
[6] = Batch 1, 25° C./Relative Humidity 60%, Sealed, 12th month
[7] = Batch 1, 25° C./Relative Humidity 60%, Sealed, 18th month
[8] = Batch 2, 25° C./Relative Humidity 60%, Sealed, 3rd month
[9] = Batch 2, 25° C./Relative Humidity 60%, Sealed, 6th month
[10] = Batch 2, 25° C./Relative Humidity 60%, Sealed, 9th month
[11] = Batch 2, 25° C./Relative Humidity 60%, Sealed, 12th month
[12] = Batch 2, 25° C./Relative Humidity 60%, Sealed, 18th month
[13] = Batch 3, 25° C./Relative Humidity 60%, Sealed, 3rd month
[14] = Batch 3, 25° C./Relative Humidity 60%, Sealed, 6th month
[15] = Batch 3, 25° C./Relative Humidity 60%, Sealed, 9th month
[16] = Batch 3, 25° C./Relative Humidity 60%, Sealed, 12th month
[17] = Batch 3, 25° C./Relative Humidity 60%, Sealed, 18th month

## CCOc1cc([C@@H](CS(C)(=O)=O)n2c(=O)[nH]c3c(C)c(-c4ccccc4F)cnc32)ccc1OC [Crystal Form A of Compound 1]
[1]
  Hygroscopic Category: no or little hygroscopicity
  ΔW (hygroscopic weight gain): 0.08%
[2]; [3]
  Appearance: White powder
  Content: 99.0%
  Total Impurity: 0.09%
[2]; [4]
  Appearance: White powder
  Content: 101.4%
  Crystal Form (XRPD): Crystal Form A
  Total Impurity: 0.09%
[2]; [5]
  Appearance: White powder
  Content: 99.6%
  Total Impurity: 0.09%
[2]; [6]
  Appearance: White powder
  Content: 98.8%
  Crystal Form (XRPD): Crystal Form A
  Total Impurity: 0.08%
[2]; [7]
  Appearance: White powder
  Content: 97.3%
  Total Impurity: 0.10%
[2]; Batch 1, Day 0
  Appearance: White powder
  Content: 99.4%
  Crystal Form (XRPD): Crystal Form A
  Total Impurity: 0.09%
[2]; [8]
  Appearance: White powder
  Content: 100.5%
  Total Impurity: 0.11%
[2]; [9]
  Appearance: White powder
  Content: 100.1%
  Crystal Form (XRPD): Crystal Form A
  Total Impurity: 0.12%
[2]; [10]
  Appearance: White powder
  Content: 99.6%
  Total Impurity: 0.11%
[2]; [11]
  Appearance: White powder
  Content: 98.2%
  Crystal Form (XRPD): Crystal Form A
  Total Impurity: 0.09%
[2]; [12]
  Appearance: White powder
  Content: 99.1%
  Total Impurity: 0.11%
[2]; Batch 2, Day 0
  Appearance: White powder
  Content: 99.4%
  Crystal Form (XRPD): Crystal Form A
  Total Impurity: 0.10%
[2]; [13]
  Appearance: White powder
  Content: 98.9%
  Total Impurity: 0.16%
[2]; [14]
  Appearance: White powder
  Content: 98.5%
  Crystal Form (XRPD): Crystal Form A
  Total Impurity: 0.12%
[2]; [15]
  Appearance: White powder
  Content: 99.2%
  Total Impurity: 0.11%
[2]; [16]
  Appearance: White powder
  Content: 98.4%
  Crystal Form (XRPD): Crystal Form A
  Total Impurity: 0.10%
[2]; [17]
  Appearance: White powder
  Content: 99.7%
  Total Impurity: 0.17%
[2]; Batch 3, Day 0
  Appearance: White powder
  Content: 99.5%
  Crystal Form (XRPD): Crystal Form A
  Total Impurity: 0.11%
[2]; long-term conditions of 25° C./Relative Humidity 60%
  Solid stability (conclusion): good stability
